According to ChEMBL document CHEMBL1141872 (Bioorg Med Chem Lett, 2005):

Experiments:
[1] = molecular target: 3',5'-cyclic-AMP phosphodiesterase 4A (Homo sapiens, UniProt P27815); assay: Inhibitory activity against PDE4A
[2] = molecular target: 3',5'-cyclic-AMP phosphodiesterase 4C (Homo sapiens, UniProt Q08493); assay: Inhibitory activity against PDE4C
[3] = molecular target: 3',5'-cyclic-AMP phosphodiesterase 4D (Homo sapiens, UniProt Q08499); assay: Inhibitory activity against PDE4D
[4] = molecular target: 3',5'-cyclic-AMP phosphodiesterase 4B (Homo sapiens, UniProt Q07343); assay: Inhibitory activity against PDE4B
Chain of 3',5'-cyclic-AMP phosphodiesterase 4B (Q07343 whole entry): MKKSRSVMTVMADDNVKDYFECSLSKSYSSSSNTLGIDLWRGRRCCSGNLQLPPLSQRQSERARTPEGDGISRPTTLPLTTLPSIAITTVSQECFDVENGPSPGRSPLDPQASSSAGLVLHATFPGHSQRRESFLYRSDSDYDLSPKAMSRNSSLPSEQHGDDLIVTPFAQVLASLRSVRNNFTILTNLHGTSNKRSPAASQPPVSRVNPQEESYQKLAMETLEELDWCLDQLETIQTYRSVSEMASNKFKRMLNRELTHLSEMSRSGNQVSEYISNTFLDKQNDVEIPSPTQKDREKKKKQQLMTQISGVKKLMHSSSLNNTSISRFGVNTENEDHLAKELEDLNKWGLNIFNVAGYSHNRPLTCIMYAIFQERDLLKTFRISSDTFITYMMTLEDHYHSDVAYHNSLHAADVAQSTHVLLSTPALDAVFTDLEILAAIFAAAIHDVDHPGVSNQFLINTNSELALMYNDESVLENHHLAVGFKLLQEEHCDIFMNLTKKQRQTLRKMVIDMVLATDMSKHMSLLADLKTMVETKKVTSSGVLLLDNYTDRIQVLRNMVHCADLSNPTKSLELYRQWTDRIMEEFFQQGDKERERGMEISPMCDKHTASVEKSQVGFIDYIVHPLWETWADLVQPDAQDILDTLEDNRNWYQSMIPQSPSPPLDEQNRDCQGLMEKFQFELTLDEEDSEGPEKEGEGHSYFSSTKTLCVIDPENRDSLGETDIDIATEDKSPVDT

[5] = molecular target: T1, Phosphodiesterase 4 (Homo sapiens, UniProt P27815+Q08499+Q07343+Q08493); assay: Inhibition of LPS-induced TNFalpha production in human whole blood; assay type: functional, tissue-based
[6] = system: Cavia porcellus; assay: Inhibition of ovalbumin-induced bronchoconstriction in guinea pig at 0.3 mg/kg, ip; assay type: functional; details: route intraperitoneal
[7] = Emetic threshold as plasma concentration in ferrets after 1.0 mg/kg oral dose; assay type: ADME, organism-based, Mustela putorius furo; design: dose 1 mg/kg, route oral; details: ferret, read-out: Emesis_Cmax
[8] = Emetic threshold as plasma concentration in squirrel monkeys after 3 mg/kg oral dose; assay type: ADME, organism-based; design: dose 3 mg/kg, route oral; details: saimiri, read-out: Emesis_Cmax
[9] = system: Cavia porcellus; assay: Inhibition of ovalbumin-induced bronchoconstriction in guinea pig at 0.1 mg/kg, ip; assay type: functional; details: route intraperitoneal
[10] = system: Mustela putorius furo; assay: Emetic threshold as plasma concentration in ferrets after 10 mg/kg oral dose; assay type: ADME, organism-based; design: dose 10 mg/kg, route oral; details: ferret, in vivo
[11] = molecular target: T1, Phosphodiesterase 4; assay: Inhibition of LPS-induced TNFalpha production in squirrel monkey whole blood; assay type: functional, tissue-based, Saimiri sciureus; details: target entry is the homologue from another species
[12] = system: Cavia porcellus; assay: Inhibition of ovalbumin-induced bronchoconstriction in guinea pig at 1 mg/kg, ip; assay type: functional; details: route intraperitoneal
[13] = Emetic threshold as plasma concentration in squirrel monkeys after 10 mg/kg oral dose; assay type: ADME, organism-based; design: dose 10 mg/kg, route oral; details: saimiri, read-out: Emesis_Cmax
[14] = system: Ovis aries; assay: Inhibition of early-phase antigen induced bronchoconstriction in Ascaris sensitive sheep at 0.5 mg/kg/day, iv; assay type: functional
[15] = Emetic threshold as plasma concentration in squirrel monkeys after 0.5 mg/kg oral dose; assay type: ADME, organism-based; design: dose 0.5 mg/kg, route oral; details: saimiri, read-out: Emesis_Cmax
[16] = system: Ovis aries; assay: Inhibition of late-phase antigen induced bronchoconstriction in Ascaris sensitive sheep at 0.5 mg/kg/day, iv; assay type: functional
[17] = system: Cavia porcellus; assay: Inhibition of ovalbumin-induced bronchoconstriction in guinea pig at 0.01 mg/kg, ip; assay type: functional; details: route intraperitoneal
[18] = Cmax in rat at 20 mg/kg, po; assay type: ADME, organism-based; design: dose 20 mg/kg, route oral; details: in vivo
[19] = Oral bioavailability in rat at 20 mg/kg, po; assay type: ADME, organism-based; details: in vivo
[20] = system: Cavia porcellus; assay: Inhibition of ovalbumin-induced bronchoconstriction in guinea pig at 0.03 mg/kg, ip; assay type: functional; details: route intraperitoneal
[21] = Tmax in rat at 20 mg/kg, po; assay type: ADME, organism-based; design: dose 20 mg/kg, route oral; details: in vivo
[22] = Emetic threshold as plasma concentration in ferrets after 30 mg/kg oral dose; assay type: ADME, organism-based, Mustela putorius furo; design: dose 30 mg/kg, route oral; details: ferret, read-out: Emesis_Cmax

Chain of 3',5'-cyclic-AMP phosphodiesterase 4C (Q08493 whole entry): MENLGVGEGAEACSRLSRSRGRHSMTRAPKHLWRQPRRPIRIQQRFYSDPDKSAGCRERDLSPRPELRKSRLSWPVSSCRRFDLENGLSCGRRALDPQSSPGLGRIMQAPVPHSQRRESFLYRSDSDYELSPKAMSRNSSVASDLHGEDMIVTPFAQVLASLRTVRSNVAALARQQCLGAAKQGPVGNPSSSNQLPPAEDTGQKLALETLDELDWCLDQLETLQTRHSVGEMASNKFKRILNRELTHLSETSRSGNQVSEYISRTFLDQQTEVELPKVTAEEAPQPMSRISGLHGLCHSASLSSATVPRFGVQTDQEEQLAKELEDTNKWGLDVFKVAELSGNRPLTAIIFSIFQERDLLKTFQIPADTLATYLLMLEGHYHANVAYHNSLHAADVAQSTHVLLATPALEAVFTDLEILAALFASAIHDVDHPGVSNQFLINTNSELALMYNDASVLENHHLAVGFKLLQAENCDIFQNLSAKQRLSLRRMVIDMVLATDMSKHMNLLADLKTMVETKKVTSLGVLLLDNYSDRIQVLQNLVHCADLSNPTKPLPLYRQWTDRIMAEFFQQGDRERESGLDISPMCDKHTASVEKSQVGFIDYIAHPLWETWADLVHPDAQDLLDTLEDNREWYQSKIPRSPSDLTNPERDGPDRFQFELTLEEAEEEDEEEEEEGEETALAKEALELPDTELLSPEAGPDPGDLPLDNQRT
Chain of 3',5'-cyclic-AMP phosphodiesterase 4A (P27815 whole entry): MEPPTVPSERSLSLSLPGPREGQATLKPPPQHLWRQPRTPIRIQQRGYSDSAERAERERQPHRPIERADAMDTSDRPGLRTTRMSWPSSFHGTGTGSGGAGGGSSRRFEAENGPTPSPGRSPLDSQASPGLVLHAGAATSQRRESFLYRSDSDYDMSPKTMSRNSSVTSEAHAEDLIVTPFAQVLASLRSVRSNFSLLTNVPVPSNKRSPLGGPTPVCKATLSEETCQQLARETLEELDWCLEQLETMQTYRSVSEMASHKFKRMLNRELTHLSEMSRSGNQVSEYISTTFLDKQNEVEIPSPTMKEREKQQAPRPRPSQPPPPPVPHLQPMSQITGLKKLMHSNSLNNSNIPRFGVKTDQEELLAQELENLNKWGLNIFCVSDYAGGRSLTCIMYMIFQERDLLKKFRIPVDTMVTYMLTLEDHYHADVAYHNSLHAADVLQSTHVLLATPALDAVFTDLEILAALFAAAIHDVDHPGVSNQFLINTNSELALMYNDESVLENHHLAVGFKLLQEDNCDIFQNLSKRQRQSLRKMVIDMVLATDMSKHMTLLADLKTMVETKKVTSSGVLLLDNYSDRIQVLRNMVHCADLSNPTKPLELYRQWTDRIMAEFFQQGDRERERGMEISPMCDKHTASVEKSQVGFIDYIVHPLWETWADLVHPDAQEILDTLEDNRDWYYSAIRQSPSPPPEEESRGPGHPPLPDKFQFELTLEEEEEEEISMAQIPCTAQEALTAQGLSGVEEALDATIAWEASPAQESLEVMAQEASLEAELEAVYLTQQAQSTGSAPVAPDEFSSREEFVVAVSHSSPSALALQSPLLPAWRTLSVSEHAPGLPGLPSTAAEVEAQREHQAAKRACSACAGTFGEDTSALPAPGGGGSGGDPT
Chain of 3',5'-cyclic-AMP phosphodiesterase 4D (Q08499 whole entry): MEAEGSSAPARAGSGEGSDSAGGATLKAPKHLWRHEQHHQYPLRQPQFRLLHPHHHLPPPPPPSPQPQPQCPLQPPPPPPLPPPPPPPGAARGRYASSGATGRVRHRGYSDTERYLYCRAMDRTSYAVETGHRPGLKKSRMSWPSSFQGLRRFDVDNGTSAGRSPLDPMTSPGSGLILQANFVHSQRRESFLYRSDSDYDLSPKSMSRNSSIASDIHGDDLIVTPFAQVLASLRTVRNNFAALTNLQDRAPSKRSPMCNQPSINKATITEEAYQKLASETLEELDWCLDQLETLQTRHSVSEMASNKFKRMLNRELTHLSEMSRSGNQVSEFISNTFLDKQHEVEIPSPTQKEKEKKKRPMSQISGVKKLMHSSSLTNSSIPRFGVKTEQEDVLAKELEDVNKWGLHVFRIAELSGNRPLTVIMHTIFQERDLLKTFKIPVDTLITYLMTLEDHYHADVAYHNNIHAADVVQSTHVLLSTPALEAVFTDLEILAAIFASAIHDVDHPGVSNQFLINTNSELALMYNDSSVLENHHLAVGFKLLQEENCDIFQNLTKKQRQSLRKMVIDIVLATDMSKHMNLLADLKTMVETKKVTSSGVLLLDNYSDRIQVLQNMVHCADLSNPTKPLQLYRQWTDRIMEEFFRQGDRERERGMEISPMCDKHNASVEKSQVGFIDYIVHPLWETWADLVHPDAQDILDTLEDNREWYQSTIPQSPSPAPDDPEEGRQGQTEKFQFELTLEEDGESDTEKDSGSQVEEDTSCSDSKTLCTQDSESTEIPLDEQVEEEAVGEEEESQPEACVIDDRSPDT

Row | IC50 [1] | IC50 [2] | IC50 [3] | IC50 [4] | IC50 [5] | SMILES | other results
1 | 0.47 nM | 0.7 nM | 0.19 nM | 0.3 nM | 120 nM | CC(C)c1cc(-c2cccc(/C=C(\c3ccc(S(C)(=O)=O)cc3)c3nccs3)c2)c2ncccc2c1 | –
2 | 0.3 nM | 3.8 nM | 0.5 nM | 0.3 nM | 1600 nM | CC(C)c1cc(-c2cccc(/C=C(/C(=O)O)c3ccc(S(C)(=O)=O)cc3)c2)c2ncccc2c1 | –
3 | 0.2 nM | 0.4 nM | 0.2 nM | 0.2 nM | 120 nM | Cc1ccc(/C(=C/c2cccc(-c3cc(C(C)C)cc4cccnc34)c2)c2ccc(S(C)(=O)=O)cc2)nc1 | –
4 | 0.5 nM | 5.7 nM | 0.6 nM | 0.3 nM | 1200 nM | Cc1noc(/C(=C/c2cccc(-c3cc(C(C)C)cc4cccnc34)c2)c2ccccn2)n1 | –
5 | 1.5 nM | 3.3 nM | 2.5 nM | 2.3 nM | 8300 nM | COc1cccc(-c2cc(Cc3ccncc3)cc3cccnc23)c1 | inhibition in vivo at 0.3 mg/kg [6]: 70%; Cmax [7]: 200 nM
6 | 52 nM | 68 nM | 45 nM | 19 nM | 11000 nM | CC(C)c1cc(-c2cccc(C(Cc3cc[n+]([O-])cc3)c3ccc(Cl)cc3)c2)c2ncccc2c1 (stereo not given) | –
7 | 0.9 nM | 14 nM | 2.3 nM | 0.5 nM | 930 nM | CC(C)NC(=O)/C(=C/c1cccc(-c2cc(C(C)(C)S(C)(=O)=O)cc3cccnc23)c1)c1ccc(S(C)(=O)=O)cc1 | Cmax [8]: > 2500 nM; inhibition in vivo at 0.1 mg/kg [9]: 59%
8 | 3.4 nM | 106 nM | 4.4 nM | 1.8 nM | 12000 nM | CC(C)c1cc(-c2cccc(CC(c3ccncc3)C(C)(C)O)c2)c2ncccc2c1 (stereo not given) | Emesis_Cmax [10]: 2.9 µM; IC50 [11]: 450 nM; inhibition in vivo at 1 mg/kg [12]: 47%; Cmax [13]: 11900 nM
9 | 0.4 nM | 0.5 nM | 0.5 nM | 0.3 nM | 610 nM | CC(C)c1cc(-c2cccc(/C=C(/c3ccc(C(C)(C)O)cc3)c3ccc(S(C)(=O)=O)cc3)c2)c2ncccc2c1 | –
10 | 1.7 nM | 11 nM | 2 nM | 1.1 nM | 210 nM | CC(c1cc(-c2cccc(/C=C(\c3ccc(S(C)(=O)=O)cc3)c3ncc(C(C)(C)O)s3)c2)c2ncccc2c1)S(C)(=O)=O (stereo not given) | –
11 | 1 nM | 11.4 nM | 0.5 nM | 0.4 nM | 210 nM | CC(C)NC(=O)/C(=C\c1cccc(-c2cc(C(C)(C)C#N)cc3cccnc23)c1)c1ccc(S(C)(=O)=O)cc1 | –
12 | 0.4 nM | 1 nM | 0.4 nM | 0.4 nM | 90 nM | [O-][n+]1cccc(C[C@@H](c2ccc(OC(F)F)c(OC3CC3)c2)c2cnc(C(O)(C(F)(F)F)C(F)(F)F)s2)c1 | inhibition in vivo at 0.5 mg/kg/day [14]: 68%; Cmax [15]: 1600 nM; IC50 [11]: 5 nM; inhibition in vivo at 0.5 mg/kg/day [16]: 92%; inhibition in vivo at 0.01 mg/kg [17]: 62%
13 | 5.6 nM | 11.9 nM | 2 nM | 3 nM | 7800 nM | O=S(=O)(Nc1cccc(-c2cc(Cc3ccncc3)cc3cccnc23)c1)c1ccccc1 | Emesis_Cmax [10]: > 2 µM; inhibition in vivo at 1 mg/kg [12]: 46%
14 | 0.8 nM | 6.8 nM | 0.7 nM | 0.3 nM | 70 nM | CC(C)NC(=O)/C(=C/c1cccc(-c2cc(C(C)(C)C#N)cc3cccnc23)c1)c1ccc(S(C)(=O)=O)cc1 | Cmax [18]: 4100 nM; IC50 [11]: 15 nM; bioavailability [19]: 80%; inhibition in vivo at 0.03 mg/kg [20]: 75%; Cmax [13]: 1900 nM; Tmax [21]: 6 h
15 | 0.3 nM | 2.9 nM | 0.6 nM | 0.3 nM | 140 nM | CC(C)NC(=O)/C(=C/c1cccc(-c2cc(C(C)C)cc3cccnc23)c1)c1ccc(S(C)(=O)=O)cc1 | –
16 | – | – | – | – | – | Cc1noc(/C(=C/c2cccc(-c3cc(C(C)(C)S(C)(=O)=O)cc4cccnc34)c2)c2ccc(S(C)(=O)=O)cc2)n1 | Cmax [18]: 5100 nM; inhibition in vivo at 0.5 mg/kg/day [14]: 73%; inhibition in vivo at 0.5 mg/kg/day [16]: 95%; bioavailability [19]: 100%; Cmax [13]: 3800 nM; Tmax [21]: 6 h
17 | 0.16 nM | 1.2 nM | 0.2 nM | 0.07 nM | 260 nM | Cc1noc(/C(=C/c2cccc(-c3cc(C(C)C)cc4cccnc34)c2)c2ccc(S(C)(=O)=O)cc2)n1 | Cmax [18]: 500 nM; bioavailability [19]: 11%; Tmax [21]: 0.5 h
18 | 11.8 nM | 22 nM | 38 nM | 6.4 nM | 31000 nM | CC(C)c1cc(-c2cccc(C(Cc3ccncc3)c3ccc(Cl)cc3)c2)c2ncccc2c1 (stereo not given) | –
19 | 2.1 nM | 4.5 nM | – | 1.4 nM | 14000 nM | COc1ccc([C@H](Cc2ccncc2)c2ccccc2)cc1OC1CCCC1 [CDP840] | inhibition in vivo at 0.5 mg/kg/day [14]: 39%; IC50 [11]: 600 nM; inhibition in vivo at 1 mg/kg [12]: 54%; inhibition in vivo at 0.5 mg/kg/day [16]: 88%; Cmax [22]: 2500 nM; Cmax [13]: 4000 nM
